Data reported in patent publication US20240150293A1, “SPIROCYCLOHEXANE DERIVATIVES, PHARMACEUTICAL COMPOSITIONS CONTAINING THEM AND THEIR USES AS ANTI-APOPTOTIC INHIBITORS” (LES LABORATOIRES SERVIER, priority 2021, published 2024).
Read-outs that look alike come from different tables or passages of the source.

Columns and labels:
NCI-H929 cell lines = experiment: In vitro cytotoxicity, CellTiter-Glo (CTG) assay (Example B, Method B); assay type: cell-based; conditions: Homo sapiens, NCI-H929, 48 h, NCI-H929 cells, 48 h incubation, read-out: C50
Protocol: Cellular viability was monitored with the cell viability assay (Cell Titer-Glo®) on NCI-H929 cell lines. The CellTiter-Glo® (CTG) Luminescent Cell Viability Assay (from Promega) is a homogeneous method to determine the number of viable cells in culture based on quantitation of the ATP present, which signals the presence of metabolically active cells.
Concentration response of test compounds are performed with 10 mM stock solutions (DMSO), 11-points curve, in a 384-well compound plate. The assay plate is prepared by stamping 120 nL from compound dilution plate of all different concentrations (e.g. 10 mM to have final 30 μM assay test) into a cell culture microplate, using Echo acoustic liquid handling (Labcyte, Beckman). 40 μl of cell solution is added and cells are incubated with compounds for 48 h at 37° C., 5% CO2. CTG was added to the cells (according to the manufacturer instructions) and luminescence intensity was recorded using the Pherastar plate reader (BMG).
This assay provides in vitro cellular efficacy of compounds of Formula (I) tested, measuring the C50, defined as the concentration needed to reach 50% of the cellular viability.

[1] = biological target: Cy5-labelled Mcl1 (amino acids 171-321) C286S protein (UniProtKB Q07820) (Homo sapiens (Human), UniProt Q07820, C286S); experiment: Inhibition of Mcl-1 by the fluorescence quenching assay (Example A, Method B); assay type: binding
How it was run: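 Cy5-labelled Mcl1 171-321 C286S (1 nM) quenched by TQ5WS-labelled PUMA peptide (10, 20 or 400 nM); displacement raises fluorescence (Ex 620/Em 680 nm). Buffer 10 mM HEPES, 150 mM NaCl, 0.05% Tween 20, pH 7.4, 5% DMSO; 2 h at room temperature, 11-point curves, IC50 converted to Ki (cKi/eKi).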

[2] = tested on: H929 multiple myeloma tumor line; experiment: In vitro cytotoxicity, MTT assay (Example B, Method A); assay type: cell-based; conditions: H929 cells, 48 hours exposure, read-out: C50
Protocol: The cytotoxicity studies were carried out on the H929 multiple myeloma tumor line.
The cells are distributed onto microplates and exposed to the test compounds for 48 hours. The cell viability is then quantified by a colorimetric assay, the Microculture Tetrazolium Assay (Carmichael et al, Cancer Res. 1987, 47, 939-942).
The results are expressed in C50 which means concentration corresponding to […] of effect/inhibition.

Sequence of Cy5-labelled Mcl1 (amino acids 171-321) C286S protein (Q07820 171-321 C286S): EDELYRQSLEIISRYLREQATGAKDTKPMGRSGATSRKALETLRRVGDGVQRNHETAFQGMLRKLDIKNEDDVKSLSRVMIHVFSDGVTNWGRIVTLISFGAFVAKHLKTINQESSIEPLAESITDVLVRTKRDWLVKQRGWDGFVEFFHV

CNC(=O)[C@]1(Nc2cccc(Cl)c2)CC[C@@]2(CC1)c1cc3c(cc1C[C@@H]2C[C@@H](C)COc1ccnc2c1[C@H](C)CCC2)OCO3 [Example 955, (1r,4S,6′S)-4-(3-chloroanilino)-N-methyl-6′-[(2R)-2-methyl-3-{[(5R)-5-methyl-5,6,7,8-tetrahydroquinolin-4-yl]oxy}propyl]-6′,7′-dihydro-2′H-spiro[cyclohexane-1,5′-indeno[5,6-d][1,3]dioxole]-4-carboxamide]
IC50 (NCI-H929 cell lines): 11300 nM

C[C@@H](COc1ccnc2c1[C@H](C)CCC2)C[C@H]1Cc2cc3c(cc2[C@]12CC[C@@](Nc1cccc(Cl)c1)(C(N)=O)CC2)OCO3 [Example 954, (1r,4S,6′S)-4-(3-chloroanilino)-6′-[(2R)-2-methyl-3-{[(5R)-5-methyl-5,6,7,8-tetrahydroquinolin-4-yl]oxy}propyl]-6′,7′-dihydro-2′H-spiro[cyclohexane-1,5′-indeno[5,6-d][1,3]dioxole]-4-carboxamide]
IC50 (NCI-H929 cell lines): 2790 nM

C[C@@H](COc1ccnc2c1[C@H](C)CCC2)C[C@H]1Cc2cc3c(cc2[C@]12CC[C@@](Nc1cccc(Cl)c1)(C(=O)N(C)C)CC2)OCO3 [Example 956, (1r,4S,6′S)-4-(3-chloroanilino)-N,N-dimethyl-6′-[(2R)-2-methyl-3-{[(5R)-5-methyl-5,6,7,8-tetrahydroquinolin-4-yl]oxy}propyl]-6′,7′-dihydro-2′H-spiro[cyclohexane-1,5′-indeno[5,6-d][1,3]dioxole]-4-carboxamide]
IC50 (NCI-H929 cell lines): 14500 nM

C[C@@H](COc1ccnc2c1[C@H](C)CCC2)C[C@H]1Cc2ccccc2[C@]12CC[C@@](Nc1cc(F)cc(Cl)c1)(C(=O)O)CC2 [Example 704, (1r,2′S,4S)-4-(3-chloro-5-fluoroanilino)-2′-[(2R)-2-methyl-3-{[(5R)-5-methyl-5,6,7,8-tetrahydroquinolin-4-yl]oxy}propyl]-2′,3′-dihydrospiro[cyclohexane-1,1′-indene]-4-carboxylic acid]
Ki [1]: 1.49 nM | IC50 ([2]; Homo sapiens, NCI-H929, 48 h): 240 nM

O=C(O)[C@]1(Nc2cccc(Cl)c2)CC[C@]2(CC1)C(CC(F)COc1ccnc3c1CCCC3)=Cc1ccccc12 (single isomer, unassigned) [Example 506, (1r,4r)-4-(3-chloroanilino)-2′-{2-fluoro-3-[(5,6,7,8-tetrahydroquinolin-4-yl)oxy]propyl}spiro[cyclohexane-1,1′-indene]-4-carboxylic acid]
Ki [1]: 49.2 nM | IC50 [2]: 2790 nM

C[C@@H](COc1ccnc2c1[C@H](C)CCC2)C[C@H]1Cc2ccccc2[C@]12CC[C@](C(=O)O)(N1CCc3c(Cl)cccc31)CC2 [Example 713, (1r,2′S,4S)-4-(4-chloro-2,3-dihydro-1H-indol-1-yl)-2′-[(2R)-2-methyl-3-{[(5R)-5-methyl-5,6,7,8-tetrahydroquinolin-4-yl]oxy}propyl]-2′,3′-dihydrospiro[cyclohexane-1,1′-indene]-4-carboxylic acid]
Ki [1]: 3.23 nM | IC50 ([2]; Homo sapiens, NCI-H929, 48 h): 152 nM

C[C@@H](COc1ccnc2c1C(F)CCC2)C[C@H]1Cc2ccccc2[C@]12CC[C@@](Nc1cccc(Cl)c1)(C(=O)O)CC2 (single isomer, unassigned) [Example 686]
Ki [1]: 1.85 nM | IC50 [2]: 442 nM

C[C@@H](COc1ccnc2c1CCC[C@H]2O)C[C@H]1Cc2ccccc2[C@]12CC[C@@](Nc1cccc(Cl)c1)(C(=O)O)CC2 [Example 668, (1r,2′S,4S)-4-(3-chloroanilino)-2′-[(2R)-3-{[(8R)-8-hydroxy-5,6,7,8-tetrahydroquinolin-4-yl]oxy}-2-methylpropyl]-2′,3′-dihydrospiro[cyclohexane-1,1′-indene]-4-carboxylic acid]
Ki [1]: 2.74 nM | IC50 ([2]; Homo sapiens, NCI-H929, 48 h): 355 nM

C[C@@H](COc1ccnc2c1CCC/C2=C\F)C[C@H]1Cc2ccccc2[C@]12CC[C@@](Nc1cccc(Cl)c1)(C(=O)O)CC2 [Example 684, (1r,2′S,4S)-4-(3-chloroanilino)-2′-[(2R)-3-{[(8E)-8-(fluoromethylidene)-5,6,7,8-tetrahydroquinolin-4-yl]oxy}-2-methylpropyl]-2′,3′-dihydrospiro[cyclohexane-1,1′-indene]-4-carboxylic acid]
Ki [1]: 45.5 nM | IC50 ([2]; Homo sapiens, NCI-H929, 48 h): 5850 nM

O=C(O)[C@]1(Nc2cccc(Cl)c2)CC[C@@]2(CC1)c1ccccc1CC2CC(COc1ccnc2ccsc12)Cc1ccccc1 (single isomer, unassigned) [Example 562, (1r,4r)-2′-{2-benzyl-3-[(thieno[3,2-b]pyridin-7-yl)oxy]propyl}-4-(3-chloroanilino)-2′,3′-dihydrospiro[cyclohexane-1,1′-indene]-4-carboxylic acid]
Ki [1]: 80.9 nM | IC50 [2]: 17800 nM

CC[C@H]1CCCc2nccc(OC[C@H](C)C[C@H]3Cc4ccccc4[C@]34CC[C@@](Nc3cccc(Cl)c3)(C(=O)O)CC4)c21 [Example 656, (1r,2′S,4S)-4-(3-chloroanilino)-2′-[(2R)-3-{[(5S)-5-ethyl-5,6,7,8-tetrahydroquinolin-4-yl]oxy}-2-methylpropyl]-2′,3′-dihydrospiro[cyclohexane-1,1′-indene]-4-carboxylic acid]
Ki [1]: 62.9 nM | IC50 ([2]; Homo sapiens, NCI-H929, 48 h): 2910 nM

C[C@H]1Cc2nccc(OC[C@H](C)C[C@H]3Cc4ccccc4[C@]34CC[C@@](Nc3cccc(Cl)c3)(C(=O)O)CC4)c2[C@@H](C)C1 [Example 664, (1r,2′S,4S)-4-(3-chloroanilino)-2′-[(2R)-3-{[(5S,7R)-5,7-dimethyl-5,6,7,8-tetrahydroquinolin-4-yl]oxy}-2-methylpropyl]-2′,3′-dihydrospiro[cyclohexane-1,1′-indene]-4-carboxylic acid]
Ki [1]: 52.5 nM | IC50 ([2]; Homo sapiens, NCI-H929, 48 h): 3030 nM

C[C@@H](COc1ccnc2c1CCC[C@@H]2F)C[C@H]1Cc2ccccc2[C@]12CC[C@@](Nc1cccc(Cl)c1)(C(=O)O)CC2 [Example 680, (1r,2′S,4S)-4-(3-chloroanilino)-2′-[(2R)-3-{[(8S)-8-fluoro-5,6,7,8-tetrahydroquinolin-4-yl]oxy}-2-methylpropyl]-2′,3′-dihydrospiro[cyclohexane-1,1′-indene]-4-carboxylic acid]
Ki [1]: 2.09 nM | IC50 ([2]; Homo sapiens, NCI-H929, 48 h): 687 nM

C[C@@H](COc1ccnc2c1CCCC2C(F)F)C[C@H]1Cc2ccccc2[C@]12CC[C@@](Nc1cccc(Cl)c1)(C(=O)O)CC2 (single isomer, unassigned) [Example 683]
Ki [1]: 106 nM | IC50 [2]: 9850 nM

CC(C)c1cnccc1OC[C@H](C)C[C@H]1Cc2ccccc2[C@]12CC[C@@](Nc1cccc(Cl)c1)(C(=O)O)CC2 [Example 587, (1r,2′S,4S)-4-(3-chloroanilino)-2′-[(2R)-2-methyl-3-{[3-(propan-2-yl)pyridin-4-yl]oxy}propyl]-2′,3′-dihydrospiro[cyclohexane-1,1′-indene]-4-carboxylic acid]
Ki [1]: 3.93 nM | IC50 ([2]; Homo sapiens, NCI-H929, 48 h): 679 nM

CC1CCc2nccc(OC[C@H](C)CC3=Cc4ccccc4[C@]34CC[C@@](Nc3cccc(Cl)c3)(C(=O)O)CC4)c21 (single isomer, unassigned) [Example 630]
Ki [1]: 1.17 nM | IC50 [2]: 340 nM

CC(CC1Cc2ccccc2[C@]12CC[C@@](Nc1cccc(Cl)c1)(C(=O)O)CC2)C1CCC(=O)CC1 (single isomer, unassigned) [Example 572, (1r,4r)-4-(3-chloroanilino)-2′-[2-(4-oxocyclohexyl)propyl]-2′,3′-dihydrospiro[cyclohexane-1,1′-indene]-4-carboxylic acid]
Ki [1]: 84.2 nM | IC50 [2]: 30000 nM

C[C@@H](COc1ccnc2c1[C@@H](C)CC[C@H]2F)C[C@H]1Cc2ccccc2[C@]12CC[C@@](Nc1cccc(Cl)c1)(C(=O)O)CC2 [Example 687, (1r,2′S,4S)-4-(3-chloroanilino)-2′-[(2R)-3-{[(5R,8S)-8-fluoro-5-methyl-5,6,7,8-tetrahydroquinolin-4-yl]oxy}-2-methylpropyl]-2′,3′-dihydrospiro[cyclohexane-1,1′-indene]-4-carboxylic acid]
Ki [1]: 4.25 nM | IC50 ([2]; Homo sapiens, NCI-H929, 48 h): 600 nM

C[C@@H]1CCCc2nccc(OCC(CC3Cc4ccccc4[C@]34CC[C@@](Nc3cccc(Cl)c3)(C(=O)O)CC4)C(F)F)c21 (single isomer, unassigned) [Example 521]
Ki [1]: 32.3 nM | IC50 [2]: 986 nM

C[C@@H]1CCCc2nccc(OCC(F)CC3Cc4ccccc4[C@]34CC[C@@](Nc3cccc(Cl)c3)(C(=O)O)CC4)c21 (single isomer, unassigned) [Example 509]
Ki [1]: 5.3 nM | IC50 [2]: 999 nM

C[C@@H](CNc1ccncc1)C[C@H]1Cc2ccccc2[C@]12CC[C@@](Nc1cccc(Cl)c1)(C(=O)O)CC2 [Example 575, (1r,2′S,4S)-4-(3-chloroanilino)-2′-{(2R)-2-methyl-3-[(pyridin-4-yl)amino]propyl}-2′,3′-dihydrospiro[cyclohexane-1,1′-indene]-4-carboxylic acid]
Ki [1]: 350 nM | IC50 ([2]; Homo sapiens, NCI-H929, 48 h): 16200 nM
